The record followed here is US10047071B1, “Dihydropyrimidinone derivatives” (KING SAUD UNIVERSITY, priority 2018, dated 2018).

Usually melting point stands for the temperature of the solid-liquid transition. Turning to `O=C1NC=C(C(=O)c2ccc(-n3ccnc3)cc2)C(c2ccccc2)N1` (centres unmarked) [Compound 1, 5-[4-(1H-imidazol-1-yl)benzoyl]-4-phenyl-3,4-dihydropyrimidin-2(1H)-one], the melting point was 130 to 132 °C. With `O=C1NC=C(C(=O)c2ccc(-n3ccnc3)cc2)C(c2ccccc2[N+](=O)[O-])N1` (centres unmarked) [Compound 2, 5-[4-(1H-imidazol-1-yl)benzoyl]-4-(2-nitrophenyl)-3,4-dihydropyrimidin-2(1H)-one] the figure was 155 to 157 °C; with `O=C1NC=C(C(=O)c2ccc(-n3ccnc3)cc2)C(c2ccc([N+](=O)[O-])cc2)N1` (centres unmarked) [Compound 3, 5-[4-(1H-imidazol-1-yl)benzoyl]-4-(4-nitrophenyl)-3,4-dihydropyrimidin-2(1H)-one], 158 to 160 °C; with `O=C1NC=C(C(=O)c2ccc(-n3ccnc3)cc2)C(c2cccc([N+](=O)[O-])c2)N1` (centres unmarked) [Compound 4, 5-[4-(1H-imidazol-1-yl)benzoyl]-4-(3-nitrophenyl)-3,4-dihydropyrimidin-2(1H)-one], 160 to 162 °C. Regarding `O=C1NC=C(C(=O)c2ccc(-n3ccnc3)cc2)C(c2ccc(Cl)cc2)N1` (centres unmarked) [Compound 5, 4-(4-chlorophenyl)-5-[4-(1H-imidazol-1-yl)benzoyl]-3,4-dihydropyrimidin-2(1H)-one], the melting point fell in the range of 180 to 182 °C. For `O=C1NC=C(C(=O)c2ccc(-n3ccnc3)cc2)C(c2ccc(Cl)cc2Cl)N1` (centres unmarked) [Compound 6, 4-(2,4-dichlorophenyl)-5-[4-(1H-imidazol-1-yl)benzoyl]-3,4-dihydropyrimidin-2(1H)-one] the value was 138 to 140 °C; for `COc1ccccc1C1NC(=O)NC=C1C(=O)c1ccc(-n2ccnc2)cc1` (centres unmarked) [Compound 7, 5-[4-(1H-imidazol-1-yl)benzoyl]-4-(2-methoxyphenyl)-3,4-dihydropyrimidin-2(1H)-one], 140 to 142 °C.

Take `O=C1NC=C(C(=O)c2ccc(-n3ccnc3)cc2)C(c2cccc(O)c2)N1` (centres unmarked) [Compound 9, 4-(3-hydroxyphenyl)-5-[4-(1H-imidazol-1-yl)benzoyl]-3,4-dihydropyrimidin-2(1H)-one]: the melting point was in the range of 190 to 192 °C. In turn, `COc1cccc(C2NC(=O)NC=C2C(=O)c2ccc(-n3ccnc3)cc2)c1` (centres unmarked) [Compound 10, 5-[4-(1H-imidazol-1-yl)benzoyl]-4-(3-methoxyphenyl)-3,4-dihydropyrimidin-2(1H)-one] displayed a melting point of 125 to 127 °C.

For the compound `COc1cc(OC)c(C2NC(=O)NC=C2C(=O)c2ccc(-n3ccnc3)cc2)cc1OC` (centres unmarked) [Compound 11, 5-[4-(1H-imidazol-1-yl)benzoyl]-4-(2,4,5-trimethoxyphenyl)-3,4-dihydropyrimidin-2(1H)-one], the melting point was 135 to 137 °C. With `COc1ccc(C2NC(=O)NC=C2C(=O)c2ccc(-n3ccnc3)cc2)c(OC)c1OC` (centres unmarked) [Compound 12, 5-[4-(1H-imidazol-1-yl)benzoyl]-4-(2,3,4-trimethoxyphenyl)-3,4-dihydropyrimidin-2(1H)-one] the figure was 138 to 140 °C; with `COc1cc(C2NC(=O)NC=C2C(=O)c2ccc(-n3ccnc3)cc2)cc(OC)c1OC` (centres unmarked) [Compound 13, 5-[4-(1H-imidazol-1-yl)benzoyl]-4-(3,4,5-trimethoxyphenyl)-3,4-dihydropyrimidin-2(1H)-one], 128 to 130 °C.

With `COc1cc(OC)c(C2NC(=O)NC=C2C(=O)c2ccc(-n3ccnc3)cc2)c(OC)c1` (centres unmarked) [Compound 14, 5-[4-(1H-imidazol-1-yl)benzoyl]-4-(2,4,6-trimethoxyphenyl)-3,4-dihydropyrimidin-2(1H)-one], the melting point was in the range of 130 to 132 °C.

The compound `COc1ccc(C2NC(=O)NC=C2C(=O)c2ccc(-n3ccnc3)cc2)cc1OC` (centres unmarked) [Compound 15, 5-[4-(1H-imidazol-1-yl)benzoyl]-4-(3,4-dimethoxyphenyl)-3,4-dihydropyrimidin-2(1H)-one] came in with a melting point of 136 to 138 °C.
